{"source": "patent US20060019883A1", "about": "“Use of cyclin D1 inhibitors” (priority 2003, published 2006)", "tested_on": "ER-positive breast cancer", "experiment": "Randomised clinical trial: 2 years of tamoxifen treatment or no adjuvant treatment, breast cancer specific survival in relation to cyclin D1", "format": "in vivo, patients", "settings": "for Median survival time of deceased patients / Mortality rate: tumours with >90% ER positive cells", "excerpt": "The breast cancer material used in this study initially included 168 post-menopausal (>55 years old) patients with small (T0-T1) node-negative (N0) tumours. […] Data regarding breast cancer specific survival was obtained from the Swedish Cancer Registry (2002) resulting in a mean follow-up time of 18 years (range 15-22 years). Representative parts of the tumours were assembled in a tissue array, sectioned and immunohistochemically stained for ER (antibodies M7047 from Dako, Denmark, diluted 1/200) and cyclin D1 (M7155, Dako, Denmark, 1/100). […] The alternative model is that cyclin D1 could sequester cdk-inhibitors thereby effecting the G1/S control and tamoxifen response.\nE: Cumulative total survival in the patient group of cyclin D1 high breast cancer subdivided according to tamoxifen treatment or nor treatment.", "key": {"[1]": {"settings": "High CD1 and tamoxifen treatment"}, "[2]": {"settings": "Moderate/low CD1 and tamoxifen treatment"}}, "note": "Entries after “also recorded” stand apart in the source; their conditions may differ."}
{"compound": "CC/C(=C(\\c1ccccc1)c1ccc(OCCN(C)C)cc1)c1ccccc1", "note": "[tamoxifen]", "values": [{"measurement": "Difference in survival for tamoxifen in comparison to no treatment", "setting": "102 tumours with >90% ER positive cells", "value": "marked difference in survival"}, {"measurement": "Median survival time of deceased patients", "setting": "[1]", "value": 47, "unit": "months*"}, {"measurement": "Mortality rate", "setting": "[1]", "value": 39, "unit": "%"}, {"measurement": "Median survival time of deceased patients", "setting": "[2]", "value": 169, "unit": "months"}, {"measurement": "Mortality rate", "setting": "[2]", "value": 63, "unit": "%"}, {"measurement": "Difference in survival for tamoxifen in comparison to no treatment", "setting": "tumours lacking or expressing low ER and tumours with 10-90% ER positive cells", "value": "did not show any significant difference in survival"}, {"measurement": "Difference in survival between tamoxifen and no treatment", "setting": "tumours with high cyclin D1", "value": "this difference was eliminated; also recorded: little or no effect"}]}
